Patent US4822800A (Ortho Pharmaceutical Corporation, priority 1986, dated 1989)
Entries after “also recorded” stand apart in the source; their conditions may differ. Where two headings read alike, the source gives them in different places.

Legend:
adult mongrel dogs [1] = assay: acute in vivo cardiotonic activity in anesthetized dogs; design: species or system dog (adult mongrel); details: for change in vivo at 0.375 mg/kg / change in vivo at 1.875 mg/kg / change in vivo at 0.875 mg/kg / change in vivo at 8.75 mg/kg / change in vivo at 0.1 mg/kg: Canis lupus familiaris, cardiotonic, relative to controls; for change in vivo at 0.375 mg/kg: dose 0.375 mg/kg intravenous; for change in vivo at 1.875 mg/kg: dose 1.875 mg/kg intravenous; for change in vivo at 0.875 mg/kg: dose 0.875 mg/kg intravenous; for change in vivo at 8.75 mg/kg: dose 8.75 mg/kg intravenous; for change in vivo at 0.1 mg/kg: dose 0.100 mg/kg intravenous
Experimental: The acute in vivo cardiotonic activity of compounds prepared according to the present invention was determined according to a modification of the procedure described by Alousi et al., Circ. Res., 45, 666 (1979).
In particular, adult mongrel dogs were anesthetized with sodium pentobarbital and were artificially respired. Arterial pressure was monitored via a femoral artery, and the pulse pressure was used to trigger a cardiotachometer for heart rate. Left ventricular pressure was determined with a Millar catheter, and dP/dt (the change in ventricular pressure with time) was derived. Cardiac output was determined by measuring ascending aortic blood flow with an electromagnetic flow probe, and myocardial contractile force was measured with a Walton Brodie strain gauge sutured to the right ventricle. Lead II EKG was also recorded.
A standard dose (10 μg/kg/min) of dopamine was administered to assess myocardial responsiveness.
Compounds of the invention were administered by intravenous infusion or bolus […] administration, and the effects on cardiovascular parameters were determined.
Dose related effects of the test compound on blood pressure (BP), heart rate (HR), maximum change in left ventricular pressure with time (dP/dt max),% change in cardiac force (CF) and the increase in mean arterial blood pressure relative to controls (MABP) were compared to pretreatment control values, expressed as a% change and rated for activity.

[2] = biological target: T1, Phosphodiesterase fraction III (Canis lupus familiaris, UniProt A0A8I3NYE0); assay: inhibition of phosphodiesterase fraction III activity; type: biochemical, canine (heart); details: for IC50: cyclic AMP 0.10-1.0 uM, pH 7.4, canine heart enzyme; for phosphodiesterase fraction III inhibition (in words): summary of Table 5
T1 construct: isolated as an isozyme from the crude canine heart homogenate; from tissue; host or cells: canine heart (crude homogenate, ion exchange chromatography, third and last PDE peak)
T1 sequence (A0A8I3NYE0 1-1135): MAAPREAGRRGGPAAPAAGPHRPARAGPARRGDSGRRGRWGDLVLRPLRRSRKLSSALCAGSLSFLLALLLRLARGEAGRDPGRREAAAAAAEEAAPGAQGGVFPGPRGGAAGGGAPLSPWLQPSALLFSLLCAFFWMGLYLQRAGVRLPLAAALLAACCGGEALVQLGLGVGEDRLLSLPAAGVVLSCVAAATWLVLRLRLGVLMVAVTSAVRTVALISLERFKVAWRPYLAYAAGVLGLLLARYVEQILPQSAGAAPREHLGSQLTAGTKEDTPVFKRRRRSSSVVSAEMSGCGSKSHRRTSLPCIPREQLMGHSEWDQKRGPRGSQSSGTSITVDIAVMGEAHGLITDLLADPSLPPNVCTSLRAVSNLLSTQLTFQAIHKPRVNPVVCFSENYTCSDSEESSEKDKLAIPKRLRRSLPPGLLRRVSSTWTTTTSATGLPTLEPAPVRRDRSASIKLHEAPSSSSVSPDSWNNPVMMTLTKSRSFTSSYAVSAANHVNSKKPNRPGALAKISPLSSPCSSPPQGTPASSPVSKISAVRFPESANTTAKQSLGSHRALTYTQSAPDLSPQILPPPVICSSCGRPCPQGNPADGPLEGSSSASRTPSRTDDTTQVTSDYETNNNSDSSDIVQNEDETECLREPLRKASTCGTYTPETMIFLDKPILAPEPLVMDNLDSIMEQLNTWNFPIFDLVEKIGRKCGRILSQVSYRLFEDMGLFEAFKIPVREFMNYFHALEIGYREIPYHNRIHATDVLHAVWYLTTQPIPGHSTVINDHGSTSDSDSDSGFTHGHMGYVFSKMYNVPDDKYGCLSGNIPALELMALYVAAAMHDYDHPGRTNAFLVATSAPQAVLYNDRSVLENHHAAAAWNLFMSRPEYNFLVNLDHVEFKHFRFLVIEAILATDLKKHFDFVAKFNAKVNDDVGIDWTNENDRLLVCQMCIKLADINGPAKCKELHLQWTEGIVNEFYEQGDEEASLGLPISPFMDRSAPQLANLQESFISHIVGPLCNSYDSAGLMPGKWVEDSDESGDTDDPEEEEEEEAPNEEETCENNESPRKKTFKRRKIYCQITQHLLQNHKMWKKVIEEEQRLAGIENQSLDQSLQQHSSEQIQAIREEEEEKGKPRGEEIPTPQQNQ

adult mongrel dogs [3] = assay: renal vasodilating activity in anesthetized dogs; type: in vivo, dog (adult mongrel); details: for change in vivo at 13.9 mg/kg / change in vivo at up to 13.9 mg/kg / change in vivo at 0.34 mg/kg / change in vivo at 1.2 mg/kg / change in vivo at 0.2 mg/kg: Canis lupus familiaris, renal vasodilator, relative to controls; for change in vivo at 13.9 mg/kg / change in vivo at up to 13.9 mg/kg: dose 13.9 mg/kg intravenous; for change in vivo at 0.34 mg/kg: dose 0.34 mg/kg intravenous; for change in vivo at 1.2 mg/kg: dose 1.2 mg/kg intravenous; for change in vivo at 0.2 mg/kg: dose 0.2 mg/kg intravenous
Experimental: Goldberg et al, J. Pharmacol. Exp. Ther., 163, 188 (1968), performed an investigation of the structural requirements for dopamine-like renal vasodilation of phenethylamines and apomorphine. The following procedure is a variation of the assay described in that report.
Adult mongrel dogs were anesthetized and surgically prepared for electromagnetic measurement of renal artery blood flow. A carotid artery was cannulated for measuring arterial blood pressure, and drugs were administered intravenously. Heart rate was monitored with a cardiotachometer. Renal vascular resistance was calculated as the ratio of mean arterial blood pressure/renal artery blood flow. Dopamine was infused intravenously at 3 μg/kg/min for ten minutes (at an infusion rate of about 1 ml/min) to determine responsiveness of each dog to renal dopamine receptor stimulation. Cumulative dose-response data were obtained by infusing a compound of this invention at progressively increasing (usually three-fold) infusion rates, each dose being infused for five minutes. The maximum % increase from pre-drug control in renal artery blood flow (or a decrease in renal vascular resistance) was determined for each infusion dose.
RBF values are percent change in renal blood flow. RVR values are percent change in renal vascular resistance. MABP and HR are percent changes in mean arterial blood pressure and heart rate, respectively, relative to controls.

[4] = read-out: MABP (mean arterial blood pressure)
[5] = read-out: dP/dt (maximum change left ventricular pressure with time)
[6] = read-out: RBF (renal blood flow)
[7] = read-out: RVR (renal vascular resistance)

`CCCc1c(O)nc(C)c2cc(OC)c(OC)cc12` [Y] showed a change in vivo at 0.375 mg/kg (adult mongrel dogs [1]; read-out: CF (cardiac force)) of 84%, a change in vivo at 0.375 mg/kg (adult mongrel dogs [1]; read-out: HR (heart rate)) of 12% and a change in vivo at 0.375 mg/kg (adult mongrel dogs [1]; [4]) of -16%. The change in vivo at 0.375 mg/kg (adult mongrel dogs [1]; [5]) was 44%, the “cardiotonic activity (in words)” value (adult mongrel dogs [1]; summary of Table 4) was “cardiotonic properties” and the IC50 [2] was 5 µM. The “phosphodiesterase fraction III inhibition (in words)” value [2] was “inhibit phosphodiesterase fraction III activity; also recorded: phosphodiesterase fraction III inhibiting properties”, the change in vivo at 13.9 mg/kg (adult mongrel dogs [3]; [6]) was 10% and the change in vivo at up to 13.9 mg/kg (adult mongrel dogs [3]; [7]) was -13%. The “renal vasodilating activity (in words)” value (adult mongrel dogs [3]; summary of Table 4) was “renal vasodilating properties”.

In the case of `COc1cc2c(C)nc(O)c(C3CCCC3)c2cc1OC` [AN], the change in vivo at 1.875 mg/kg (adult mongrel dogs [1]; read-out: CF (cardiac force)) is reported as 46%, the change in vivo at 1.875 mg/kg (adult mongrel dogs [1]; read-out: HR (heart rate)) is reported as 5% and the change in vivo at 1.875 mg/kg (adult mongrel dogs [1]; [4]) is reported as 3%. The change in vivo at 1.875 mg/kg (adult mongrel dogs [1]; [5]) was 22%, the IC50 [2] was 128 µM and the change in vivo at 0.34 mg/kg (adult mongrel dogs [3]; read-out: HR (heart rate)) was 1%. For the same compound, the change in vivo at 0.34 mg/kg (adult mongrel dogs [3]; [4]) was -1%, the change in vivo at 0.34 mg/kg (adult mongrel dogs [3]; [6]) was 10% and the change in vivo at 0.34 mg/kg (adult mongrel dogs [3]; [7]) was -10%.

`COC(=O)CCc1c(O)ncc2cc(OC)c(OC)cc12` [Compound Q, 4-(β-Carbomethoxyethyl)-3-hydroxy-6,7-dimethoxyisoquinoline] was tested, and the change in vivo at 0.875 mg/kg (adult mongrel dogs [1]; read-out: CF (cardiac force)) was 53%, the change in vivo at 0.875 mg/kg (adult mongrel dogs [1]; read-out: HR (heart rate)) was 7% and the change in vivo at 0.875 mg/kg (adult mongrel dogs [1]; [4]) was -4%. The change in vivo at 0.875 mg/kg (adult mongrel dogs [1]; [5]) was 24%, the change in vivo at 13.9 mg/kg (adult mongrel dogs [3]; [6]) was 42% and the change in vivo at up to 13.9 mg/kg (adult mongrel dogs [3]; [7]) was -23%.

Compound `COc1cc2cc(O)nc(C)c2c(OC)c1OC` [H] has a change in vivo at 0.875 mg/kg (adult mongrel dogs [1]; read-out: CF (cardiac force)) of 76%, a change in vivo at 0.875 mg/kg (adult mongrel dogs [1]; read-out: HR (heart rate)) of 13% and a change in vivo at 0.875 mg/kg (adult mongrel dogs [1]; [4]) of -2%. It also gave a change in vivo at 0.875 mg/kg (adult mongrel dogs [1]; [5]) of 45%, a change in vivo at 13.9 mg/kg (adult mongrel dogs [3]; read-out: HR (heart rate)) of 20% and a change in vivo at 13.9 mg/kg (adult mongrel dogs [3]; [4]) of -12%. The change in vivo at 13.9 mg/kg (adult mongrel dogs [3]; [6]) was 41% and the change in vivo at up to 13.9 mg/kg (adult mongrel dogs [3]; [7]) was -38%.

For `COc1ccc2cc(O)ncc2c1OC` [D], the change in vivo at 8.75 mg/kg (adult mongrel dogs [1]; read-out: CF (cardiac force)) was 60%, the change in vivo at 8.75 mg/kg (adult mongrel dogs [1]; read-out: HR (heart rate)) was 13% and the change in vivo at 8.75 mg/kg (adult mongrel dogs [1]; [4]) was -7%. For the same compound, the change in vivo at 8.75 mg/kg (adult mongrel dogs [1]; [5]) was 34%, the change in vivo at 13.9 mg/kg (adult mongrel dogs [3]; read-out: HR (heart rate)) was 3% and the change in vivo at 13.9 mg/kg (adult mongrel dogs [3]; [4]) was -11%. The change in vivo at 13.9 mg/kg (adult mongrel dogs [3]; [6]) was 21% and the change in vivo at up to 13.9 mg/kg (adult mongrel dogs [3]; [7]) was -27%.

`Cc1nc(O)c(Cl)c2cc3c(cc12)OCO3` [AG] showed a change in vivo at 1.875 mg/kg (adult mongrel dogs [1]; read-out: CF (cardiac force)) of 88%, a change in vivo at 1.875 mg/kg (adult mongrel dogs [1]; read-out: HR (heart rate)) of 28% and a change in vivo at 1.875 mg/kg (adult mongrel dogs [1]; [4]) of -22%. For the same compound, the change in vivo at 1.875 mg/kg (adult mongrel dogs [1]; [5]) was 51%, the change in vivo at 1.2 mg/kg (adult mongrel dogs [3]; read-out: HR (heart rate)) was 27% and the change in vivo at 1.2 mg/kg (adult mongrel dogs [3]; [4]) was -27%. For the same compound, the change in vivo at 1.2 mg/kg (adult mongrel dogs [3]; [6]) was 10% and the change in vivo at 1.2 mg/kg (adult mongrel dogs [3]; [7]) was -34%.

`CCOc1cc2c(C)nc(O)cc2cc1OC` [AK] showed a change in vivo at 0.375 mg/kg (adult mongrel dogs [1]; read-out: CF (cardiac force)) of 114%, a change in vivo at 0.375 mg/kg (adult mongrel dogs [1]; read-out: HR (heart rate)) of 13% and a change in vivo at 0.375 mg/kg (adult mongrel dogs [1]; [4]) of -5%. The change in vivo at 0.375 mg/kg (adult mongrel dogs [1]; [5]) was 39%, the change in vivo at 0.2 mg/kg (adult mongrel dogs [3]; read-out: HR (heart rate)) was 10% and the change in vivo at 0.2 mg/kg (adult mongrel dogs [3]; [4]) was -2%. For the same compound, the change in vivo at 0.2 mg/kg (adult mongrel dogs [3]; [6]) was 10% and the change in vivo at 0.2 mg/kg (adult mongrel dogs [3]; [7]) was -11%.

`COC(=O)Cc1c(O)nc(C)c2cc(OC)c(OC)cc12` [W] gave a change in vivo at 0.875 mg/kg (adult mongrel dogs [1]; read-out: CF (cardiac force)) of 42%, a change in vivo at 0.875 mg/kg (adult mongrel dogs [1]; read-out: HR (heart rate)) of 6% and a change in vivo at 0.875 mg/kg (adult mongrel dogs [1]; [4]) of -1%. It also gave a change in vivo at 0.875 mg/kg (adult mongrel dogs [1]; [5]) of 28%, a change in vivo at 13.9 mg/kg (adult mongrel dogs [3]; [6]) of 64% and a change in vivo at up to 13.9 mg/kg (adult mongrel dogs [3]; [7]) of -62%.

With `COc1cc2c(C)nc(O)c(C)c2cc1OC` [AB] the change in vivo at 0.1 mg/kg (adult mongrel dogs [1]; read-out: CF (cardiac force)) was 80%, the change in vivo at 0.1 mg/kg (adult mongrel dogs [1]; read-out: HR (heart rate)) was 15% and the change in vivo at 0.1 mg/kg (adult mongrel dogs [1]; [4]) was -4%. The change in vivo at 0.1 mg/kg (adult mongrel dogs [1]; [5]) was 48%, the IC50 [2] was 8.3 µM and the “phosphodiesterase fraction III inhibition (in words)” value [2] was “inhibit phosphodiesterase fraction III activity”.
